Results published in US20050036992A1, “Novel use of liver X receptor agonists” (IRM LLC, priority 2002, published 2005).

Tests used:
[1] = molecular target: T1, glucocorticoid receptor DNA binding domain and the ligand binding region of PPARβ (Homo sapiens, UniProt Q03181); details: Schmidt et al. 1999; cited from earlier work
T1 sequence (Q03181 211-439 limits assumed): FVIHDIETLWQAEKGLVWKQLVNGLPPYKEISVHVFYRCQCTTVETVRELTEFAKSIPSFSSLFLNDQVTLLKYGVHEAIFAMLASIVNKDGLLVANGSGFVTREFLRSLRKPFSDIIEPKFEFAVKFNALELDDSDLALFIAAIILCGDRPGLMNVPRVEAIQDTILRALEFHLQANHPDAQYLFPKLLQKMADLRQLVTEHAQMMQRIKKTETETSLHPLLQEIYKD

[2] = molecular target: T2, glucocorticoid receptor DNA binding domain and the ligand binding region of PPARα (Homo sapiens, UniProt Q07869); details: Schmidt et al. 1999; cited from earlier work
T2 sequence (Q07869 239-466 limits assumed): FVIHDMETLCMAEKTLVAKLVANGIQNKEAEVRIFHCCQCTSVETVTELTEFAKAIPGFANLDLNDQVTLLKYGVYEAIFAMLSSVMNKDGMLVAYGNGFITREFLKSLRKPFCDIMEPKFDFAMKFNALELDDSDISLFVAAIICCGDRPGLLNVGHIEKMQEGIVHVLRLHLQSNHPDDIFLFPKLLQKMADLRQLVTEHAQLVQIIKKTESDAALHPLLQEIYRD

[3] = molecular target: T3, glucocorticoid receptor DNA binding domain and the ligand binding region of LXRβ (Homo sapiens, UniProt P55055); details: Schmidt et al. 1999; cited from earlier work
T3 sequence (P55055 222-460 limits assumed): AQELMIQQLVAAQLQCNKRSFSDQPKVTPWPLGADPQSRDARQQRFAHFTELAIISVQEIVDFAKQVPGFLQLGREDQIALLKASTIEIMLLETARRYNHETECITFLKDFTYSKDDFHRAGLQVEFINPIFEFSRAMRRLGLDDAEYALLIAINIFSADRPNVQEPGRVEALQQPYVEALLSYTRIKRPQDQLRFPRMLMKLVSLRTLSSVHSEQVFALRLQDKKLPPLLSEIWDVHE

[4] = tested on: PGC-1 and PEPCK expression in livers of LXR null mice; assay: Liver gene expression in LXR null mice vs wild-type controls; format: in vivo, mouse; details: 20 mg/kg/day gavage; FIG. 3A
Description: (§1) This Example describes that the effects of LXR agonists on expression of genes involved in glucose metabolism is dependent on LXR expression. LXR null mice or wild-type controls on a mixed background (n=4 per group) were gavaged daily with GW3965 (20 mg/kg/day) or vehicle. At the end of the treatment period, mice were fasted for 12 hours, sacrificed and total RNA was isolated. Gene expression for was determined by real time quantitative PCR assays.

[5] = tested on: genes involved in glucose metabolism in liver; assay: Gene expression in liver of mice gavaged with LXR agonist (real time quantitative PCR); format: in vivo, mouse; details: C57/B16 mice, 20 mg/kg/day gavage, fasted 12 hours; FIG. 1A
Description: (§2) This Example describes coordinated regulation of genes involved in glucose metabolism by LXR agonist in vivo. 10 week old female C57/B16 mice (n=9 per group) were gavaged daily with GW3965 (20 mg/kg/day) or vehicle. At the end of the treatment period, mice were fasted for 12 hours, sacrificed and total RNA was isolated. Gene expression for individual animals was determined by real time quantitative PCR assays. The results are presented in FIGS. 1 and 2 as average expression for each group +/−standard deviation.

LXRβ = molecular target: T4, LXRβ (Homo sapiens, UniProt P55055); details: Collins et al. 2002; cited from earlier work
T4 sequence (P55055 1-460): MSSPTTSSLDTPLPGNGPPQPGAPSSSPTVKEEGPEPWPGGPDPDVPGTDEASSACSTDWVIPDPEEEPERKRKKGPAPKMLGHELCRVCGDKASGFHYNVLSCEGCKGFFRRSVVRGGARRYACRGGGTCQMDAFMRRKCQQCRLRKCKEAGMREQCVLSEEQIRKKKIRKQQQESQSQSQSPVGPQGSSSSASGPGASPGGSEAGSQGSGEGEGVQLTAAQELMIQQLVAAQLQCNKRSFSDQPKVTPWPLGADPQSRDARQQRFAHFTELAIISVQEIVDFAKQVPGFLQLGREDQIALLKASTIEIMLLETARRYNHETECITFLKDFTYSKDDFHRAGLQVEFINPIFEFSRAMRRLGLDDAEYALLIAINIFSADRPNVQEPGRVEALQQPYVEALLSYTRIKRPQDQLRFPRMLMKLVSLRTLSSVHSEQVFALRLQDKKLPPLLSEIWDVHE

[6] = tested on: C57B16 mice fed a high fat diet; assay: Glucose tolerance test in diet-induced obese mice; format: in vivo, mouse; details: diet-induced obesity, 20 mg/kg/day for one week
Description: To further examine effects of LXR agonists on glucose tolerance, C57B16 mice were fed a high fat diet for three months (Clinton/Cybulsky rodent diet; 40% kcal from fat, devoid of cholesterol) to induce obesity. After 3 months, mice were treated for one week with vehicle or 20 mg/kg/day GW3965. Glucose tolerance tests were performed by intraperitoneal injection of glucose (2 g/kg body weight) after 8 hours of fasting (FIG. […]). In addition, effect of GW3965 on glucose tolerance in lean C57B1/6 mice was also examined (FIG. 10B). The lean C57B1/6 mice maintained on normal chow diet and similarly treated as indicated above.

[7] = tested on: GLUT4 expression in white adipose tissue; assay: Gene expression in white adipose tissue of mice gavaged with LXR agonist (real time quantitative PCR); format: in vivo, mouse; details: C57/B16 mice, 20 mg/kg/day gavage, fasted 12 hours; FIG. 1B
Description: as §2

LXRα = molecular target: T5, LXRα (Homo sapiens, UniProt Q13133); details: Collins et al. 2002; cited from earlier work
T5 sequence (Q13133 1-447): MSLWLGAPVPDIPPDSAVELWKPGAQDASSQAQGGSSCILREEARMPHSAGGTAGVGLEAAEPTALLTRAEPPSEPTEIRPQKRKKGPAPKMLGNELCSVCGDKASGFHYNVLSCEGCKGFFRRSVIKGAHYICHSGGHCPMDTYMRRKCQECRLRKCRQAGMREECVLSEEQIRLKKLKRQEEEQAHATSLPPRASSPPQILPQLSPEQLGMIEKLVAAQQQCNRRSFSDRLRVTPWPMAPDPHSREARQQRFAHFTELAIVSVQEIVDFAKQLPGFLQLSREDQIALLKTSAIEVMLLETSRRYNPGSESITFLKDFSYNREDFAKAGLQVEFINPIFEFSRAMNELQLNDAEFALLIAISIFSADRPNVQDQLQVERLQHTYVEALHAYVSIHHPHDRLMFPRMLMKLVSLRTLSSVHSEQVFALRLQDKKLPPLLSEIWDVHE

[8] = tested on: GLUT4 expression in adipose tissue of LXR null mice; assay: Adipose tissue gene expression in LXR null mice vs wild-type controls; format: in vivo, mouse; details: 20 mg/kg/day gavage; FIG. 3B
Description: as §1

[9] = tested on: obese, insulin-resistant ob/ob mice; assay: Fasting plasma glucose in ob/ob mice, LXR agonist and/or metformin; format: in vivo, mouse; details: 3 months, GW3965 20 mg/kg/day, metformin 300 mg/kg/day, FIG. 11
Description: This Example describes treatment of mice with a combination of an LXR agonist and a known anti-diabetic drug. Obese, insulin-resistant ob/ob mice were treated with an LXR ligand, GW3965, at 20 mg/kg/day and/or metformin at 300 mg/kg/day for 3 months. Fasting plasma glucose levels were then determined.

3T3-L1 adipocytes = assay: Basal glucose uptake in 3T3-L1 adipocytes (14C-labeled 2-DOG); format: cell-based; details: 3T3-L1 adipocytes day 10, 24 hours serum-free; FIG. 9
Description: 3T3-L1 adipocytes at day 10 of differentiation were incubated for 24 hours with serum-free media supplemented with the indicated concentrations of T1317. The following day, basal glucose uptake (in the absence of insulin) of treated cells was measured in 96-well CytostarT plates using 14 C-labeled 2-DOG. Insulin (1 μg/ml) was used as positive control.

human GLUT4 promoter = assay: Human GLUT4 promoter luciferase reporter in 3T3-L1 adipocytes; format: cell-based, mouse; details: 3T3-L1 adipocytes day 8, serum-free media, 24 hours; FIG. 8B
Description: To further examine whether LXR ligands activate the human GLUT4 promoter, clonal populations of 3T3-L1 cells carrying stably-integrated luciferase reporters under the control of various truncations of the human GLUT4 promoter were differentiated into adipocytes. On day 8 of differentiation, cells were incubated in serum-free media with the indicated concentrations of T1317. Luciferase activity was measured 24 hours later.

LXRs = details: Lehmann et al. 1997; cited from earlier work

**Q.** For `CCCCCCCCCCCCCCOc1ccc(C(=O)O)o1` [TOFA, 5-tetradecyloxy-2-furancarboxylic acid], which “transactivation of chimeric GR DBD / PPARβ ligand binding region receptor” value [1] is on record?
**A.** transactivates

**Q.** What about the “transactivation of chimeric GR DBD / PPARα ligand binding region receptor” value [2] of the same compound?
**A.** transactivates

**Q.** What about the “transactivation of chimeric GR DBD / LXRβ ligand binding region receptor” value [3] of the same compound?
**A.** transactivates

**Q.** With `O=C(O)Cc1cccc(OCCCN(Cc2cccc(C(F)(F)F)c2Cl)CC(c2ccccc2)c2ccccc2)c1` [GW3965] as the compound, how does the “regulation of PEPCK expression in livers of LXR null mice” value [4] read?
**A.** abolished

**Q.** And the “regulation of PGC-1 expression in livers of LXR null mice” value [4]?
**A.** abolished

**Q.** What about the “expression of genes involved in gluconeogenesis in liver” value [5] of the same compound?
**A.** represses

**Q.** What about the “glucokinase expression in liver” value [5] of the same compound?
**A.** induces

**Q.** And the “activation of LXRβ” value (LXRβ)?
**A.** effective in activating

**Q.** And the insulin resistance [6]?
**A.** improve

**Q.** And the glucose tolerance ([6]; i.p. glucose 2 g/kg after 8 hours fasting)?
**A.** improve

**Q.** What about the “GLUT4 expression in white adipose tissue” value [7] of the same compound?
**A.** induces

**Q.** And the “activation of LXRα” value (LXRα)?
**A.** effective in activating

**Q.** And the “regulation of GLUT4 expression in adipose tissue of LXR null mice” value [8]?
**A.** abolished

**Q.** What about the “fasting plasma glucose level compared to control (vehicle)” value [9] of the same compound?
**A.** did not show significant difference

**Q.** For `O=S(=O)(c1ccccc1)N(CC(F)(F)F)c1ccc(C(O)(C(F)(F)F)C(F)(F)F)cc1` [T1317], which “basal glucose uptake (in the absence of insulin)” value (3T3-L1 adipocytes) is on record?
**A.** enhance glucose uptake

**Q.** What about the “luciferase activity under control of human GLUT4 promoter truncations” value (human GLUT4 promoter) of the same compound?
**A.** direct target for regulation

**Q.** Which “activation of LXRs” value (LXRs) does the source give for `CC(C)CC[C@@H](O)[C@@H](C)[C@H]1CC[C@H]2[C@@H]3CC=C4C[C@@H](O)CC[C@]4(C)[C@H]3CC[C@]12C` [22(R)-hydroxycholesterol] here?
**A.** activated

**Q.** With `CN(C)C(=N)N=C(N)N` [metformin] as the compound, how does the “fasting plasma glucose level compared to control (vehicle)” value [9] read?
**A.** did not show significant difference

**Q.** With `CC(C)[C@@H](O)CC[C@@H](C)[C@H]1CC[C@H]2[C@@H]3CC=C4C[C@@H](O)CC[C@]4(C)[C@H]3CC[C@]12C` [24(S)-hydroxycholesterol] as the compound, how does the “activation of LXRs” value (LXRs) read?
**A.** activated

**Q.** With `C[C@H](CC[C@@H]1OC1(C)C)[C@H]1CC[C@H]2[C@@H]3CC=C4C[C@@H](O)CC[C@]4(C)[C@H]3CC[C@]12C` [24,25(S)-epoxycholesterol] as the compound, how does the “activation of LXRs” value (LXRs) read?
**A.** activated
